Entries after “also recorded” stand apart in the source; their conditions may differ.
Molecular target: T1, pCdk2(ES)/cyclin A holoenzyme (Homo sapiens, UniProt P24941, C177A/F80C)
T1 construct: GST (N, cleaved yes); made in house; host or cells: E. coli Tuner(DE3); Cdk2 phosphorylated in vitro with GST-CAK1 (S. cerevisiae)
Test: spectrophotometric coupled (LDH/PK) kinase assay after labelling and dialysis
Assay type: biochemical
Details: treatment with 0.5 mM acrylamide, then dialysis to remove ligand
From the text: Next we undertook biochemical validation of the electrophile sensitive approach using a spectrophotometric kinase assay. In this experiment the activity of Cdk2 is activated both by phosphorylation and interaction with cyclin A. The catalytic turnover of ATP is coupled to the oxidation of NADH by lactate dehydrogenase (LDH) and pyruvate kinase (PK), which is monitored by absorbance at 340 nm.
H. Intact-protein mass spectrometry
Protein-mass data were obtained on a Waters micromass LC-TOF mass spectrometer in positive ion mode using electrospray ionization. Samples were chromatographed using an Acquity UPLC protein BEH C4 column (2.1 mm × 50 mm, 2.7 µm) with a flow rate of 30 µL/min. The injection volume was 5 µL of protein solution (5 µM) in 30 mM ammonium bicarbonate buffer con-taining 0.5% formic acid and 20% MeOH. The gradient used was 100% mobile phase A (0.1% formic acid in water/MeOH (19:1)) ramping linearly to 90% mobile phase B (0.1% formic acid in MeOH) over 5 minutes. […]
4EK3) and the model was iteratively refined using Phenix.Refine[13] with manual modelling and adjustments carried out in COOT[14]. […] Electron density maps were calculated using FFT[17] and figures were prepared using PyMol (Schrö dinger). […]

For C=CC(=O)Nc1ccc(-c2ncccn2)cc1 [S1], the “inhibition of kinase activity” value was “complete irreversible inhbition”.

For C=CC(=O)N1CCCc2cc(C(=O)OC)ccc21 [compound 1], the “inhibition of kinase activity” value was “complete irreversible inhbition; also recorded: complete inhibition”.
